# Reference: PubChem BioAssay (NCI)
#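 In this assay, cells in 96-well plates receive the compound at five concentrations for 48 hours. Endpoints are linearly interpolated between the surrounding concentrations. Abbreviation: GI50, concentration required for 50% inhibition of growth. TGI: concentration producing complete growth inhibition.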
# What was measured:
# Experiment in all cases: NCI-60 cell line screen, 48 h
# NCI-H226 lung = system: NCI-H226 lung
# SK-MEL-28 melanoma = system: SK-MEL-28 melanoma
# UACC-62 melanoma = system: UACC-62 melanoma
# PC-3 prostate = system: PC-3 prostate
# T-47D breast = system: T-47D breast
# U251 CNS = system: U251 CNS
# HS 578T breast = system: HS 578T breast
# HT29 colon = system: HT29 colon
# ACHN renal = system: ACHN renal
# BT-549 breast = system: BT-549 breast
Compound,GI50 (NCI-H226 lung) [µM],TGI (NCI-H226 lung) [µM],GI50 (SK-MEL-28 melanoma) [µM],TGI (SK-MEL-28 melanoma) [µM],GI50 (UACC-62 melanoma) [µM],TGI (UACC-62 melanoma) [µM],GI50 (PC-3 prostate) [µM],TGI (PC-3 prostate) [µM],GI50 (T-47D breast) [µM],TGI (T-47D breast) [µM],GI50 (U251 CNS) [µM],TGI (U251 CNS) [µM],GI50 (HS 578T breast) [µM],TGI (HS 578T breast) [µM],GI50 (HT29 colon) [µM],TGI (HT29 colon) [µM],GI50 (ACHN renal) [µM],TGI (ACHN renal) [µM],GI50 (BT-549 breast) [µM],TGI (BT-549 breast) [µM]
C[C@@H]1COCCN1c1cc(C2(O)C[C@H]3CC[C@@H](C2)O3)c2cnn(-c3ccn[nH]3)c2n1 (stereo partly specified),0.0448,0.528,0.251,2.1,0.05,0.384,0.277,24.4,0.122,0.734,0.137,8.62,0.0479,0.556,0.181,> 100,0.0316,0.353,0.049,0.784
CCN(Cc1c(Cl)cccc1Cl)c1ccc(CO)c(Cl)c1,0.0224,0.071,11.9,25.5,0.0406,0.741,11.3,23.9,< 0.017,0.18,0.372,15.3,15.8,37.9,2.43,15.3,14.2,27.3,16.2,30.4
C=CC1=C(C)C2=NC1=CC1=NC(=C(CC)/C1=C\O)C=C1N=C3C(=C1C)C(=O)[C@H](C(=O)OC)C3=C1NC(=C2)[C@@H](C)[C@@H]1CCC(=O)O,,> 100,,> 100,,> 100,,> 100,,> 100,,> 100,,> 100,,> 100,,> 100,,> 100
Cc1coc2c1C(OC(=O)C(C)C)C1(C)C(C)CCC(O)C1C2=O (stereo unspecified),,> 100,,> 100,,> 100,,> 100,,> 100,,> 100,,> 100,,> 100,,> 100,,> 95
Cc1c(Cl)cccc1NC(=O)c1sc2nc3c(cc2c1N)CCCCC3,4.68,34.1,1.22,> 50,0.233,> 50,0.307,17.9,0.22,> 50,0.281,15.8,0.227,> 50,0.186,5.02,0.449,> 50,0.252,> 50
O=C1OCC2=C1C(c1ccccc1)c1cc3c(cc1N2CCO)OCCO3 (stereo unspecified),10.8,> 50,8.24,> 50,,> 50,0.182,> 50,0.22,> 50,0.279,> 50,0.206,10.8,0.168,1.61,0.493,> 50,0.465,> 13.7
CN(C)CCCn1c(-c2nonc2N)nc2cnccc21,> 4.99,> 25,> 25,> 25,> 25,> 25,> 25,> 25,> 25,> 25,> 25,> 25,19.1,> 25,> 25,> 25,> 25,> 25,> 25,> 25
CC(O)c1cc(C(=O)N[C@@H](C)Cn2ccc(-c3ccc(C#N)c(Cl)c3)n2)n[nH]1 (stereo partly specified),58.5,> 100,72.8,> 100,34.3,> 100,22.1,> 100,13.2,87.8,> 100,> 100,62.7,> 100,> 100,> 100,82.5,> 100,19.7,77.7
N#CC1C=Cc2c(ccc3ccccc23)N1C(=O)c1ccccc1 (stereo unspecified),1.34,> 100,0.723,> 100,0.243,> 100,0.333,> 100,0.103,> 100,0.387,> 81.6,1.31,,0.0701,3.82,0.352,> 100,2.29,> 60.1
COc1c(B(O)O)cc(F)cc1-c1nc2ccc3[nH]ncc3c2c2c1CCCC2,2,7.85,2.69,8.47,1.55,5.85,1.9,11.3,2.62,8.99,1.6,13.1,0.0173,5.43,3.07,21.1,1.12,16.3,0.044,1.76
Cc1ccc(Sc2cc3c(oc2=O)-c2ccccc2OC3O)cc1 (stereo unspecified),30,75,22.2,57.9,21.2,49.8,28,76.5,24.8,81.2,21.1,42.3,26.1,61.7,30.9,> 100,24.8,57.3,18.7,37.4
O=C1C(Cl)=C(Nc2cccc(C(F)(F)F)c2)C(=O)N1Cc1ccc(Cl)cc1,< 0.0129,,3.95,23.6,,1.26,0.298,16.8,2.11,30.8,0.0371,13.1,0.711,33,0.595,24.9,0.421,15.1,0.154,20.3
CCN(c1cc(C#CCN2CCOCC2)cc(C(=O)NCc2c(C)cc(C)[nH]c2=O)c1C)C1CCC(N(C)CCOC)CC1 (stereo unspecified),> 100,> 100,> 100,> 100,> 100,> 100,> 100,> 100,> 100,> 100,> 100,> 100,> 100,> 100,> 100,> 100,> 100,> 100,> 100,> 100
C[C@@H](Nc1nc(Nc2ccc(F)c(Cl)c2)nc2ccccc12)C1CC1,6.37,35.9,2.86,11.8,2.68,14.3,2.19,8.04,2.7,14,3.72,14.5,6.02,25.6,2.72,11.7,4.11,17.3,2.51,7.3
CCCCCCCCCCCCCCCCCC(=O)Nc1ccn(C2OC(CO)C(O)C2O)c(=O)n1 (stereo unspecified),,> 100,,> 100,,> 100,,> 100,,> 100,,> 100,,> 100,,> 100,,> 100,,> 91.5
CCN(CC)c1ccc(/C=C/C=C2\NC(=O)NC2=O)cc1,15,> 100,27.1,> 100,3.95,> 100,3.75,> 100,4,> 100,3.22,17.9,3.91,42.6,1.82,9.25,7.24,> 100,1.53,40.8
CC#Cc1nc(Nc2cc(C)[nH]n2)c2ccccc2n1,2.21,11.1,7.76,> 100,2.67,11.8,5.22,21.6,10.8,56.5,11.3,27.4,2.28,8.41,3.71,16.9,2.74,14.1,4.9,23.2
O=c1oc2c(C(F)(F)F)cccc2cc1-c1csc(Nc2ccc(OCCF)cc2)n1,0.587,72.3,1.32,> 66.4,0.0507,> 38.9,0.0446,> 100,0.0797,> 100,0.0376,12,0.051,> 69.4,0.032,1.02,0.0609,13.5,0.0387,6.34
CC1=NN(c2nc(N)nc(/C=C\c3ccc([N+](=O)[O-])s3)n2)C(C)(C)C1,> 100,> 100,> 100,> 100,> 100,> 100,> 100,> 100,> 100,> 100,> 100,> 100,> 100,> 100,56.4,> 100,> 100,> 100,> 100,> 100
